# Measured values as given in patent publication US9062308B2, “Compositions and methods for treatment of tamoxifen resistant breast cancer” (The Johns Hopkins University, priority 2011, dated 2015).
# Key:
# [1] = test system: TGFα and HB-EGF; experiment: TGFα and HB-EGF expression in MCF-10A-B7 cells under EGFR inhibition; format: cell-based
# [2] = test system: HOXB7 mRNA; experiment: Real time quantitative PCR analysis of HOXB7 mRNA levels; format: cell-based
# Experimental: (4A) Real time quantitative PCR analysis of HOXB7 mRNA levels in MCF-7 cells. Cells were incubated in estrogen deprived condition for 72 hours [DMEM phenol red-free medium containing 5% Dextran charcoal stripped serum (DCC-FBS)]; the cells were then treated with 0.1-100 nM estrogen (E2); […]; Inset: Semi-quantitative RT-PCR analysis of HOXB7 mRNA following 1 uM TAM treatment for 24 hour. (4B) Real time quantitative PCR analysis of HOXB7. mRNA levels in MDA-MB-231 and MDA-MB-453 cells were transiently transfected with ERα expression plasmid and vector control for 48 hours. ERIN, a ERα overexpressed cell line, was used with MCF10A as a control. (4C) Immunoblot analysis of HOXB7 and ERα expression levels in transient transfectants of MDA-MB-231-ERα.
# Real-time PCR of HOXB7 expression. HOXB7 gene expression was quantitated by Taqman real-time quantitative PCR in triplicate in 96-well plate using an ABI 7900HT (Applied Biosystems) using cDNA derived from our previously published cohort of tumor samples (Cancer research 62(3):827-834). The sequences of the HOXB7 PCR primer pairs and fluorogenic MGB probe (5′ to 3′), respectively, are: AAAACCTACCACTCGCGTGTTC (SEQ ID NO: 5), GGA CGG GAA GCA AGA AGC A (SEQ ID NO: 6), and VIC-CAA GCG CCT GGC TG (SEQ ID NO: 7).
# [3] = test system: MCF-7-B7 cells; experiment: TAM treatment in culture, apoptosis and cell viability, MCF-7-B7 cells; format: cell-based; settings: MCF-7-B7 cells in culture
# [4] = test system: EGFR, p44/42 MAPK and ERα phosphorylation; experiment: EGFR signaling in estrogen deprived MCF-7-B7 cells treated with TAM; format: cell-based
# Description: These observations indicate that under the treatment conditions, nongenomic ERα action occurred to activate EGFR signaling.
# [5] = test system: LTED cells; settings: MCF-7-LTED cells; cited from earlier work
# [6] = test system: MCF-7-B7 cells; experiment: Soft agar colony formation by MCF-7-B7 cells; format: cell-based
# Experimental: (§1) FIG. 3 depicts evidence that HOXB7 promotes TAM resistance. (3A) Immunoblot analysis of Phospho-EGFR, EGFR, P-MAPK, MAPK and HOXB7 expression levels in MCF-7-Vec and MCF-7-HOXB7 cells. (3B) Tumor growth curve of MCF-7-HOXB7 cells implanted s.c. in athymic Swiss female mice and treated with either vehicle or TAM (83.3 μg/day), in the absence of an exogenous estrogen supplement. […] (3D) Semi quantitative RT-PCR analysis of mRNA expression levels of TGFα, HB-EGF and Amphiregulin in HOXB7 expressing MCF-7 cells and their vector controls (left); Amphiregulin or TGFα mRNA expression in MCF-7-vec and MCF-7-B7 cells treated with either scrambled sequence siRNA or ERα-specific siRNA (right) (3E) Diagram representing the HOXB7 binding sites in EGFR promoter region. MCF-7 cells were transfected with pcDNA3-Flag-HOXB7 and Vector plasmid, ChIP was performed by IP with either anti-Flag M2 antibody or control IgG. (3F) Luciferase activity of deletion/truncation constructs of the EGFR promoter, with (solid box) and without (slashed box) transfected HOXB7 plasmid, to map minimal region necessary for activation by HOXB7.
# [7] = test system: MCF-7-TMR cells; experiment: Soft agar colony formation in MCF-7-TMR cells; format: cell-based
# Experimental: (§2) (2A) Immunoblot analysis of Phospho-EGFR (Y1068), EGFR, Phospho-MAPK, MAPK, Phospho-ERα (S118), ERα, and HOXB7 expression in MCF-7 cells treated long-term with either vehicle or 0.1 μM TAM (TMR1) or 1 μM TAM (TMR2). (2B) Immunoblot analysis of EGFR, Phospho-MAPK, MAPK and HOXB7 expression in MCF-7-TMR cells and BT474 transfected with either scrambled sequence siRNA or HOXB7-specific siRNA. (2C) Soft agar colony formation in BT474 cells and MCF-7-TMR cells transfected with either scrambled sequence siRNA or HOXB7-specific siRNA treated with Vehicle or 1 μM TAM.
# (§3) HOXB7 in the acquisition of anti-estrogen resistance. Because of the observation of a striking similarity in phenotype between prolonged endocrine therapy primed TAM-resistant models and our HOXB7 overexpressing cells, the hypothesis that HOXB7 is a mediator of anti-estrogen resistance was investigated. MCF-7 cell lines were derived, and exposed to either vehicle or TAM (0.1 μM or 1 μM) for over 12 months (designated MCF-7-TMR1 or MCF-7-TMR2 respectively).
# [8] = test system: EGFR, MAPK, ERα and HOXB7; experiment: Immunoblot analysis of MCF-7 cells treated long-term with TAM; format: cell-based
# Experimental: as §2, §3
# [9] = test system: MCF-7-B7 xenografts; experiment: Xenograft analysis, tumor growth of MCF-7-B7 cells implanted s.c. in athymic mice; format: in vivo; settings: MCF-7-B7 xenografts in immunodeficient mice; TAM 83.3 μg/day; no exogenous estrogen supplement
# Experimental: as §1
# Xenograft Analysis. […] At necropsy, primary tumors, liver, lung and spleen were evaluated for the presence of macroscopic tumors. […]
# [10] = test system: MCF-7-Vec cells; experiment: TAM treatment in culture, apoptosis and cell viability, MCF-7-Vec cells; format: cell-based; settings: MCF-7-Vec cells in culture
# [11] = test system: EGFR, p44/42 MAPK, ARG and TGFα; experiment: EGFR activity and EGFR ligand levels in MCF-7-B7 cells after ER downregulation; format: cell-based
# Experimental: as §1
# [12] = test system: ERα-positive breast cancer; settings: patients with acquired resistance who progress on TAM; cited from earlier work
# [13] = test system: BT474 cells; experiment: Soft agar colony formation in BT474 cells; format: cell-based; settings: 1 μM gefitinib and 1 μM TAM
# Experimental: as §2
compound,measurement,setting,value
COc1cc2ncnc(Nc3cccc(Cl)c3)c2cc1OC [AG1478],elevated expression of TGFα and HB-EGF,[1],significantly abrogated
"CC/C(=C(\c1ccccc1)c1ccc(OCCN(C)C)cc1)c1ccccc1 [TAM, tamoxifen]",HOXB7 mRNA levels,"[2]; MCF-7 and T47D cells, tamoxifen in medium containing 10% FBS",increased
same,downregulation of HOXB7 expression by estradiol,[2]; tamoxifen added to estradiol,abrogated
same,"sensitivity to TAM treatment (apoptosis, cell viability)",[3],minimally sensitive
same,"active EGFR, p44/42 MAPK activity and ERα phosphorylation","[4]; MCF-7-B7 cells in estrogen deprived conditions, TAM for 24 hours, vs MCF-7-Vec cells","significantly higher levels of active forms of EGFR, increased p44/42 MAPK activity and ERα phosphorylation"
same,"phosphorylation of EGFR, p44 MAPK and ER","[4]; estrogen deprived MCF-7-B7 cells, 1 μM TAM for 0-30 minutes, data not shown","elevated phosphorylation of EGFR, activation of p44 MAPK, and ER phosphorylation at Serine 118"
same,sensitivity of LTED cells,[5],refractory
same,colony formation in soft agar in the presence of tamoxifen,[6]; TAM 1 μM,at frequencies similar to vehicle treated cells
same,resistance to TAM treatment by colony formation assay,"[7]; MCF-7-TMR1 cells (0.1 μM TAM for over 12 months), data not shown",significant resistance to TAM treatment
same,HOXB7 expression,[8]; MCF-7-TMR cells (long-term TAM),upregulated
same,levels of HOXB7 expression over time,"[8]; MCF-7 cells, 0.1 μM TAM, 0, 2, 4, 6 months, data not shown",progressively increasing levels of HOXB7 expression
same,"expression of EGFR, activated MAPK and ERα, total ERα","[8]; MCF-7 cells, TAM 0.1 μM or 1 μM for over 12 months","elevated expression of EGFR and activated MAPK and ERα, but no significant change of total ERα"
same,tumor growth response to TAM,[9],failed to respond to the inhibitory effects of TAM
same,apoptosis and cell viability,[10],increased apoptosis and decreased cell viability
"C[C@]12CC[C@@H]3c4ccc(O)cc4CC[C@H]3[C@@H]1CC[C@@H]2O [estradiol, 17β-estradiol]",HOXB7 expression,[2]; estradiol stimulation in estrogen-deprived growth conditions (5% charcoal stripped serum),significantly reduced
C[C@]12CC[C@@H]3c4ccc(O)cc4C[C@@H](CCCCCCCCC[S+]([O-])CCCC(F)(F)C(F)(F)F)[C@H]3[C@@H]1CC[C@@H]2O (stereo partly shown) [fulvestrant],sensitivity of LTED cells,[5],sensitive
same,EGFR and p44/42 MAPK activity,[11]; HOXB7 overexpression (MCF-7-B7 cells),modestly reduced increases in EGFR and p44/42 MAPK activity
same,levels of the autocrine/paracrine EGFR ligands (ARG and TGFα),[11]; MCF-7-B7 cells,significant reduction
same,patients who respond,[12],20%
COc1cc2ncnc(Nc3ccc(F)c(Cl)c3)c2cc1OCCCN1CCOCC1 [gefitinib],"effect on TAM action, soft agar colony formation",[13],dramatically converted TAM to a potent antagonist
same,"re-sensitization to TAM treatment, soft agar colony formation",[6]; 1 μM gefitinib with TAM 1 μM,significantly re-sensitized them to TAM treatment
same,"effect on TAM action, soft agar colony formation","[7]; MCF-7-TMR cells, 1 μM gefitinib and 1 μM TAM",dramatically converted TAM to a potent antagonist
